Consider 82 molecules from PubChem BioAssay AID1320 (NMMLSC, 2008).

pEC50: −log10 of the molar value. Active and inactive are the calls of the source. No rule for the calls is given here.

The target in one assay is Bcl-2-related protein A1 (Homo sapiens) (UniProt Q16548). In words: inhibitors of Bim binding to Bfl-1, dose response, biochemical, multiplexed, bead-based flow cytometry (AID 1320). As to percent span (inhibition): test concentration not given here. Conditions: Bim peptide-Bfl-1 binding, fluorescence. For orientation: A flow cytometer gives signals particle by particle.
Bcl-2-related protein A1 (Homo sapiens), sequence (Q16548 whole entry, looked up): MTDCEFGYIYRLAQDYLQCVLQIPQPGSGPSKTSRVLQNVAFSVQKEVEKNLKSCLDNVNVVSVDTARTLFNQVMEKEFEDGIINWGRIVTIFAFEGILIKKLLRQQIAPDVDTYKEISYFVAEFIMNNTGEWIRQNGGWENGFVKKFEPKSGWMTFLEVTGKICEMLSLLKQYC
For orientation: pEC50 means −log10 of the EC50, conventionally taken in molar units. On to `O=[N+]([O-])c1ccc(N/N=C/c2ccc(O)c(O)c2O)c(S(=O)(=O)N2CCOCC2)c1`, for which the pEC50 is 5.35.
On the same count and under the same terms, the figure for `O=C(N/N=C/c1ccc(O)c(O)c1O)/C(=C/c1ccc([N+](=O)[O-])cc1)NC(=O)c1ccccc1` is 5.28.

Staying with this assay, now noted: Bim peptide-Bfl-1 binding, fluorescence, stronger effect = higher value.
On to `O=C(O)c1ccc(NS(=O)(=O)c2ccc3c(c2)C(=O)c2ccccc2C3=O)cc1`, for which the “percent span (inhibition)” value was “inactive”.
For the molecule `COc1ccc(NC(=O)Cc2c(F)cccc2Cl)c(OC)c1`, the “percent span (inhibition)” value is “inactive”.
`CCOc1ccccc1NC(=O)CSc1ccc2nnc(-c3cccnc3)n2n1`: the “percent span (inhibition)” value was “inactive”.
Same read-out and setting: the entry for `Cc1ccc(OCC(=O)NCc2ccccn2)c(Br)c1` is “inactive”; for `COc1ccc2cc(CN(CCc3ccccc3)Cc3nnnn3CC3CCCO3)c(=O)[nH]c2c1` (configuration not stated) it is “inactive”; for `CC(C)C(=O)N1CCN(c2ccc([N+](=O)[O-])cc2Cl)CC1` it is “inactive”.
As to `O=[N+]([O-])c1ccc2[nH]nc(-c3ccccc3)c2c1`, the “percent span (inhibition)” value is “inactive”.
Same read-out and setting: in the case of `Cc1ccc(N=c2ssnc2Cl)cc1` it was “inactive”.
For `CC(C)(C)c1nc(NCCN2CCOCC2)c2nnn(Cc3ccccc3Cl)c2n1`, the “percent span (inhibition)” value is “inactive”.
For `O=C(NC1=C(Nc2ccc(F)cc2)C(=O)c2ccccc2C1=O)c1ccc(Cl)cc1`, the “percent span (inhibition)” value is “inactive”.
With `CC1Cc2ccccc2N1C(=O)CSc1nnnn1-c1ccc2c(c1)OCCO2` (configuration not stated), the “percent span (inhibition)” value is “inactive”.
Regarding `NC(=O)CSc1nnc(Cn2cnc3ccccc32)o1`, the “percent span (inhibition)” value was “inactive”.
Turning to `CCOCCCNc1nc(=S)[nH]c2cc(OC)c(OC)cc12`, the “percent span (inhibition)” value was “inactive”.
Regarding `O=C(C1=NN[C@@H]2C(=O)N(c3cccc(F)c3)C(=O)[C@H]12)c1ccc2ccccc2n1`, the “percent span (inhibition)” value is “inactive”.
Still for that read-out and setting: in the case of `CCOC(=O)c1snc(-c2ccc(F)cc2)c1N` it was “inactive”.
Regarding `CCSc1ncc(Cl)c(C(=O)Nc2sc3c(c2C(=O)NCc2cccnc2)CCCC3)n1`, the “percent span (inhibition)” value is “inactive”.
`COc1cc(/C=N/NC(=O)CN(Cc2ccco2)S(=O)(=O)c2ccccc2)ccc1O`: the “percent span (inhibition)” value was “inactive”.
As for `O=C1NC(=O)C2(Cc3c(nc4ccccn4c3=O)N3CCCCCC32)C(=O)N1Cc1ccccc1` (configuration not stated), the “percent span (inhibition)” value was “inactive”.
`O=C(COCC(=O)NCc1ccccc1)NCc1ccccc1`: the “percent span (inhibition)” value was “inactive”.
`Cc1nnc2ccc(-c3cccc(NC(=O)c4ccco4)c3)nn12`: the “percent span (inhibition)” value is “inactive”.
Take `CC1(C)CC(NC(=O)COc2ccc([N+](=O)[O-])cc2)CC(C)(C)N1`: the “percent span (inhibition)” value is “inactive”.
`Cc1ccc(OCc2cn3cccnc3n2)cc1`: the “percent span (inhibition)” value was “inactive”.
`Cc1noc(C)c1COc1ccc(C(=O)Nc2cccnc2)cc1`: the “percent span (inhibition)” value was “inactive”.
Regarding `O=C1c2ccccc2-c2onc3ccc(NCc4ccco4)c1c23`, the “percent span (inhibition)” value was “inactive”.
With `O=C(c1cnccn1)N1CCN(c2ccccc2F)CC1`, the “percent span (inhibition)” value was “inactive”.
As to `CCOc1ccc(C2=Nn3c(nnc3-c3ccccn3)SC2)cc1`, the “percent span (inhibition)” value was “inactive”.
Regarding `CSc1n[nH]c2nc3c(c(=O)n12)C1(CCCC1)Cc1ccccc1-3`, the “percent span (inhibition)” value was “inactive”.
The same measure, in the same setting: in the case of `Cc1cc2nc(/C(C#N)=C/c3ccncc3)[nH]c2cc1C` it was “inactive”; in that of `Cc1cnnn1-c1ccc(C(=O)CCl)cc1`, “inactive”; in that of `Cc1cc(NC(=O)CCSc2ccccc2)ccc1Br`, “inactive”.
Same read-out and setting: in the case of `CCN1CCN(c2ccc(NC(=O)c3ccc4c(c3)[nH]c(=O)n4Cc3ccc(OC)cc3)cc2)CC1` it was “inactive”; in that of `COCCNc1nc(=S)[nH]c2cc(OC)c(OC)cc12`, “inactive”; in that of `O=C(Nc1nnc(C2CC2)s1)C1Cc2ccccc2CN1S(=O)(=O)c1ccccc1F` (configuration not stated), “inactive”.
For the molecule `Cc1noc(C)c1CN1C(=O)NC(Cc2ccccc2)(Cc2ccccc2)C1=O`, the “percent span (inhibition)” value is “inactive”.
Same read-out and setting: the entry for `Cc1ccc(NC(=O)C/C(N)=N/OC(=O)c2ccccc2)cc1` is “inactive”.
Still for that read-out and setting: the entry for `Cc1ccc(C(=O)CCC(=O)Nc2ccc(Cl)c(S(=O)(=O)Nc3cccc(Cl)c3)c2)cc1` is “inactive”; for `CCOc1ccc(C(=O)Nc2nnc(NC(=S)Nc3ccccc3)s2)cc1` it is “inactive”; for `CC(=O)Nc1ccc(NC2=C(Cl)C(=O)c3ccccc3C2=O)cc1` it is “inactive”.
On the same count and under the same terms, the entry for `CC1=CC(=O)c2ccccc2C1=O` is “inactive”; for `O=C(Nc1ccc(Cl)cn1)Nc1ccccc1F` it is “inactive”; for `COc1ccc(NC(=O)c2cc(-c3ccc(C)o3)nc3ccccc23)cc1OC` it is “inactive”.
In the case of `Cc1ccc(Nc2nc(C)cs2)cc1`, the “percent span (inhibition)” value was “inactive”.
As for `Cc1c(Cc2ccccc2)sc(N)c1C(N)=O`, the “percent span (inhibition)” value was “inactive”.
For `COc1ccc(OCCNC(=O)c2ccccc2OCC(=O)N2CCCCC2)cc1`, the “percent span (inhibition)” value is “inactive”.
For `CC(C)NS(=O)(=O)c1ccc(OCC(=O)Nc2ccc(F)cc2)cc1`, the “percent span (inhibition)” value was “inactive”.
Turning to `Cn1c(CCNC(=O)C2CCCCC2)nc2cc(NC(=O)c3cccs3)ccc21`, the “percent span (inhibition)” value was “inactive”.
The same measure, in the same setting: the entry for `Cc1cc(C)cc(NS(=O)(=O)c2ccc3c(c2)c(=O)n(C)c(=O)n3C)c1` is “inactive”; for `Cc1ccccc1-n1nc(SCC(=O)O)sc1=S` it is “inactive”; for `Cc1[nH]nc(SCC(=O)NCc2ccc(F)cc2)c1[N+](=O)[O-]` it is “inactive”.
Regarding `O=C(Nc1n[nH]c(C(F)(F)F)n1)C1CC1`, the “percent span (inhibition)” value is “inactive”.
Turning to `Fc1cccc(Nc2nc(-c3ccncc3)nc3ccccc23)c1`, the “percent span (inhibition)” value was “inactive”.
With `Cc1csc(SCCn2c(N3CCN(c4ccccc4)CC3)nc3c2c(=O)[nH]c(=O)n3C)n1`, the “percent span (inhibition)” value was “inactive”.
For the molecule `CCC(CC)C(=O)Nc1cccc(S(=O)(=O)c2cccc(NC(=O)C(CC)CC)c2)c1`, the “percent span (inhibition)” value is “inactive”.
With `CCN1/C(=C/c2ccc3cc(C)cc(C)c3[n+]2CC)Sc2cc(C)ccc21`, the “percent span (inhibition)” value was “inactive”.
The same measure, in the same setting: the entry for `CCOc1cc(CNc2ccc(N(C)C)cc2)cc(Br)c1OCC(=O)NC(C)(C)C` is “inactive”; for `Cn1cccc1CC(=O)N/N=C\c1ccccc1` it is “inactive”.
Consider `CCOC(=O)CSc1nnc(-c2cccc(Cl)c2)n1CC`, for which the “percent span (inhibition)” value was “inactive”.
With `COc1ccc(C)cc1Nc1ccc(C(=O)O)cc1[N+](=O)[O-]`, the “percent span (inhibition)” value was “inactive”.
For the molecule `OC(COc1ccc2cc(Br)ccc2c1)CN1CCOCC1` (configuration not stated), the “percent span (inhibition)” value was “inactive”.
For the molecule `COc1cc(NC(=O)c2ccc3c(c2)OCO3)ccc1NC(=O)c1ccco1`, the “percent span (inhibition)” value was “inactive”.
For `CN(C)c1ccc(/C=C2/SC(=O)N(CCN=C3NS(=O)(=O)c4ccccc43)C2=O)cc1`, the “percent span (inhibition)” value was “inactive”.
With `COc1ccc(OC)c(NC(=O)COC(=O)c2cc3c(s2)CCC3)c1`, the “percent span (inhibition)” value is “inactive”.
As to `CCN(CC)c1ccc(NC(=O)c2cccc(C)c2)cc1S(=O)(=O)Nc1ccccc1OC`, the “percent span (inhibition)” value was “inactive”.
`Clc1nc2ccccc2cc1/C=N/Nc1nc2ccccc2[nH]1`: the “percent span (inhibition)” value was “inactive”.
On to `COc1cccc2c(SCC(=O)N/N=C/c3ccc(O)c(O)c3)cc(C)nc12`, for which the “percent span (inhibition)” value was “inactive”.
Consider `Cc1cc(C(=O)NCCCN(C)C)c2ccccc2n1`, for which the “percent span (inhibition)” value is “inactive”.
With `CCn1c(SCC(=O)Nc2ccccc2-c2ccccc2)nnc1-c1ccoc1C`, the “percent span (inhibition)” value was “inactive”.
As for `CCCCC(=O)Nc1ccc(C(=O)N2CCC(C(=O)OCC)CC2)cc1`, the “percent span (inhibition)” value is “inactive”.
`Cc1cc(-c2csc(N)n2)c(C)n1C`: the “percent span (inhibition)” value was “inactive”.
Take `O=C1Nc2ccc([N+](=O)[O-])cc2OC1CCN1CCN(Cc2ccc3c(c2)OCO3)CC1` (configuration not stated): the “percent span (inhibition)” value was “inactive”.
For `COc1cc(/C=C2/NC(=O)N(Cc3ccccc3F)C2=O)cc(OC)c1O`, the “percent span (inhibition)” value was “inactive”.
Turning to `CN(C(=O)NC1CCCCC1)c1ccccc1`, the “percent span (inhibition)” value was “inactive”.
Regarding `c1ccc(Nc2nc(-c3ccncc3)cs2)cc1`, the “percent span (inhibition)” value was “inactive”.
On to `O=C1c2ccccc2C(=O)N1CN(C(=O)COc1ccc(Cl)cc1Cl)c1cccc(F)c1`, for which the “percent span (inhibition)” value was “inactive”.
For `CCN(CC)c1ccc(NC(=O)c2ccc(=O)[nH]c2)cc1S(=O)(=O)Nc1ccccc1OC`, the “percent span (inhibition)” value was “inactive”.
On the same count and under the same terms, in the case of `COc1ccc(NC(=O)c2ccc3c(c2)NC(=O)CS3)cc1S(=O)(=O)Nc1ccc(Br)cc1` it was “inactive”; in that of `COc1ccc(OC)c2sc(NC(=O)c3ccc(Br)s3)nc12`, “inactive”.
`CCOC(=O)C1CCCN(c2ncnc3c2cnn3-c2cccc(C)c2)C1` (configuration not stated): the “percent span (inhibition)” value was “inactive”.
Consider `COc1ccc2nc(C)cc(SCC(=O)N/N=C/c3ccc(O)c(O)c3)c2c1`, for which the “percent span (inhibition)” value was “inactive”.
With `O=C(OCc1cnc(Cl)s1)c1cccc(Cl)c1Cl`, the “percent span (inhibition)” value is “inactive”.
